Source: article PMC9611758, “Bioactive Platinum(IV) Complexes Incorporating Halogenated Phenylacetates” (Molecules, 2022)
“Also recorded” adds a separate entry of the source.

Assays:
HT29 colon = assay: MTT growth inhibition assay, HT29; format: cell-based, human; settings: MTT assay, 72 h
U87 glioblastoma = assay: MTT growth inhibition assay, U87; format: cell-based, human; settings: 72 h
MCF-7 breast = assay: MTT growth inhibition assay, MCF-7; format: cell-based, human; settings: for GI50: MTT assay, 72 h
A2780 ovarian = assay: MTT growth inhibition assay, A2780; format: cell-based, human; settings: 72 h
H460 lung = assay: MTT growth inhibition assay, H460; format: cell-based, human; settings: 72 h
A431 skin = assay: MTT growth inhibition assay, A431; format: cell-based, human; settings: 72 h
Du145 prostate = assay: MTT growth inhibition assay, Du145; format: cell-based, human; settings: MTT assay, 72 h
BE2-C neuroblastoma = assay: MTT growth inhibition assay, BE2-C; format: cell-based, human; settings: 72 h
SJ-G2 glioblastoma = assay: MTT growth inhibition assay, SJ-G2; format: cell-based, human; settings: 72 h
MIA pancreas = assay: MTT growth inhibition assay, MIA; format: cell-based, human; settings: 72 h
[1] = tested on: non-tumour derived MCF10A breast line; assay: MTT growth inhibition assay, MCF10A; format: cell-based, human; settings: 72 h
[2] = tested on: ADDP-resistant ovarian variant; assay: MTT growth inhibition assay, ADDP; format: cell-based, human; settings: MTT assay, 72 h
panel of cell lines = assay: MTT growth inhibition assay, whole panel of cell lines; format: cell-based, human; settings: average over the cell lines tested, MTT assay, 72 h
[3] = Lipophilicity by HPLC (log kw); format: physicochemical; settings: for log kw: chromatographic lipophilicity index, extrapolated to 100% d.i.H2O; for log kw (y-intercept of log k versus [CH3CN] % plot, Figure S80): linear fit
Excerpt: For lipophilicity measurements, HPLC was utilised instead of the traditional shake-flask method, as described previously. Recent studies have also reported the efficiency of HPLC in measuring the lipophilicity of compounds [79, 80]. Each complex was eluted under several isocratic ratios. A standard curve was generated to calculate the log value of the capacity factor (log k) according to Equation (1). Following Equation (2), the percentage of organic solvent (CH3CN) in the mobile phase from each isocratic run was plotted against log kw (Figure S80). Log kw is the chromatographic lipophilicity index or measure of lipophilicity of the complex, so a higher value corresponds to greater lipophilicity. Because the selected axial ligands in this study contain F, Cl, Br, and I, it was only appropriate to determine the influence of the halogens on the overall lipophilicity of the platinum(IV) complexes. […] Conversely, the least lipophilic complex was the phen derivative containing 4-FPA, 3, with a log kw of 0.25. Furthermore, for the phen derivatives, the order of increasing lipophilicity was 3 > 1 > 5 > 7, which corresponds to the order of increasing size of the halogens, F > Cl > Br > I. This pattern was also observed with the 5,6-Me2phen derivatives (4 > 2 > 6 > 8), thereby confirming that the halogens increased the order of lipophilicity accordingly based on their size.
For lipophilicity measurements, analytical HPLC was utilised. Elution profiles were acquired on an Agilent (Melbourne, VIC, Australia) Technologies 1260 Infinity instrument equipped with a Phenomenex Onyx^TM Monolithic C18-reverse phase column (100 × 4.6 mm, 5 µm pore size) (Sydney, NSW, Australia). The mobile phase consisted of solvents, A (0.06% TFA in d.i.H2O) and B (0.06% TFA in CH3CN/d.i.H2O (90:10)). Potassium iodide was used as an external dead volume marker to determine the dead time of the column. Retention times (TR) were measured at varying isocratic ratios ranging from 30 to 36% of solvent B at 1 mL·min^−1 mL. An injection volume of 10 µL was utilised. Capacity factors were determined according to Equation (1):(1) k=(TR−T0)/T0 where k is the capacity factor, TR is the retention time of the analyte, and T0 represents the dead time. A minimum of four different mobile compositions were used for each complex to calculate k. A linear plot was generated of log k against the concentration of CH3CN in the mobile phase to determine the value of log kw expressed by Equation (2):(2) logk=Sφ+logkw where S is the slope, φ is the concentration of the CH3CN in the mobile phase, and log kw represents the capacity factor of the complex in 100% d.i.H2O. Extrapolation of this linear plot to the y-intercept indicates the log kw value.

[4] = Reduction experiments with AsA by 1H-NMR and 1D-195Pt-NMR; format: physicochemical; settings: D2O, 37 °C; for T50% (approximate time at which 50% reduction occurs): 10 mM PBS (~7.4 pH); for T50% (approximate time at which 50% reduction occurs) / time at which reduction starts: 1H-NMR; for time at which reduction starts / extent of reduction at 1 h (1H-NMR) / extent of reduction 1 h after the final 1H-NMR experiment (1D-195Pt-NMR): PBS; for extent of reduction 1 h after the final 1H-NMR experiment (1D-195Pt-NMR): regions −2800 and 400 ppm
Excerpt: Platinum(IV) complexes are reduced to their platinum(II) precursors by intracellular biological reducing agents such as AsA or GSH in tumour cells. However, the precise mechanism by which reduction occurs is not fully understood. In this paper, reduction reaction experiments were undertaken on the synthesised platinum(IV) complexes, 1–8, with the aid of ^1H-NMR and 1D-^195Pt-NMR spectroscopy. The method used for the reduction reaction experiments was adapted from the literature without modifications. A total of 10 mM PBS (~7.4 pH) was selected as media, and AsA was used as the biological reducing agent to investigate the reduction property of 1–8. Prior to the reduction reaction experiments, a control was prepared where each metal complex was dissolved with PBS in D2O. 1D-^195Pt-NMR was measured within the regions of −2800 and 400 ppm (30 min per region), at 37 °C. This was undertaken to confirm that the PBS would not interfere with the reduction process of the metal complexes. […] The approximate time points for the studied complexes at which an estimated 50% reduction had occurred, in the presence of AsA, as represented by T50%, are summarised in Table 6.
The reduction properties of 1–8 were monitored using ^1H-NMR and 1D-^195Pt-NMR spectroscopy on a 400 MHz Bruker (Melbourne, VIC, Australia) Avance Spectrometer. A sequence of ^1H-NMR experiments was carried out for 1 h at 37 °C, followed by 1D-^195Pt-NMR within the regions of −2800 and 400 ppm. An amount of 10 mM PBS (~7.4 pH) was transferred to a vial and reduced to dryness through rotary evaporation. AsA (~1 mg) was combined with the metal complex (~5 mg) and transferred to the vial containing the dried PBS. A total of 600 µL of D2O was then added to the vial to dissolve the complex, AsA, and the PBS together.

HT29 colon cells = assay: ROS detection assay (DCFH-DA); format: cell-based, human; settings: HT29 colon cells, treated at GI50 concentration (TBHP positive control 20 μM)
Excerpt: Although ROS is required for cancer cell function and progression, it can induce programmed cell death or apoptosis. […] In this study, we report the ROS activity of the studied platinum(IV) complexes, 1–8, together with the individual axial ligands (4-CPA, 4-FPA, 4-BPA, and 4-IPA) in the human cancer cell line, HT29 colon (Figure 19, Table 8, and Figure S95). The ROS potential of their platinum(II) and platinum(IV) precursors in the same cell line is also presented for comparison purposes (Table 8). […] HT29 colon cells were stained by DCFH-DA and then treated with the complexes at each specific GI50 concentration. Upon ROS production, the DCFH-DA produced dichlorodihydrofluorescein, a fluorescent product. The measured fluorescence was, therefore, proportional to the produced ROS.
To investigate the presence of ROS in treated cells, a DCFDA/H2DCFDA-cellular ROS Assay Kit (Abcam, Cambridge, MA, USA) was used, as previously described. A total of 25,000 cells/mL of HT29 cells in DMEM were seeded in 96-well plates. Cells were washed with 1X kit buffer, and then stained with 25 μM 2′,7′-dichlorofluorescein diacetate (DCFH-DA) and incubated for 45 min. DCFH-DA was then removed, and cells were then re-washed with 1X kit buffer, after which phenol red free media was added. Cells were then treated with a GI50 drug concentration for each complex. The plates were directly scanned to measure fluorescence (relative fluorescence units (RFU)) at different time points using the Glo-Max®-Multimode microplate reader (Promega Corporation, Alexandra, VIC, Australia) at an excitation/emission of 485/535 nm. To generate the positive control (20 μM tert-butyl hydroperoxide (TBHP)), cells were washed with 1X kit buffer, and stained with DCFDA (25 μM) for 45 min; this was removed and TBHP was added in phenol red free media, and the resulting solution was scanned as described above.

N[C@H]1CCCC[C@@H]1N.O=C(Cc1ccc(Cl)cc1)[O][Pt+2]1([OH])[N]2C=CC=c3ccc4c(c32)[N]1C=CC=4 [Complex 1, [Pt^IV(phen)(SS-DACH)(4-CPA)(OH)]^2+]
GI50 (HT29 colon): 150 ± 64 nM
GI50 (U87 glioblastoma): 740 ± 230 nM
GI50 (MCF-7 breast): 860 ± 180 nM
GI50 (A2780 ovarian): 280 ± 67 nM
GI50 (H460 lung): 380 ± 81 nM
GI50 (A431 skin): 560 ± 73 nM
GI50 (Du145 prostate): 140 ± 43 nM
GI50 (BE2-C neuroblastoma): 490 ± 93 nM
GI50 (SJ-G2 glioblastoma): 420 ± 92 nM
GI50 (MIA pancreas): 270 ± 42 nM
GI50 [1]: 290 ± 90 nM
GI50 [2]: 290 ± 50 nM
GI50 (panel of cell lines): 406 ± 90 nM
log kw [3]: 0.75
log kw (y-intercept of log k versus [CH3CN] % plot, Figure S80) [3]: 0.7472
T50% (approximate time at which 50% reduction occurs) [4]: 15 to 20 min
time at which reduction starts [4]: 5 min
extent of reduction at 1 h (1H-NMR) [4]: almost entirely reduced to its platinum(II) precursor, PHENSS
extent of reduction 1 h after the final 1H-NMR experiment (1D-195Pt-NMR) [4]: reduced entirely to PHENSS; also recorded: complete reduction
ROS production 24 h (HT29 colon cells): 272 ± 9 RFU
ROS production 48 h (HT29 colon cells): 368 ± 19 RFU
ROS production 72 h (HT29 colon cells): 409 ± 11 RFU

Cc1c(C)c2c3c4c1=CC=C[N]4[Pt+2]([OH])([O]C(=O)Cc1ccc(Cl)cc1)[N]3C=CC=2.N[C@H]1CCCC[C@@H]1N [Complex 2, [Pt^IV(5,6-Me2phen)(SS-DACH)(4-CPA)(OH)]^2+]
GI50 (HT29 colon): 22 ± 9.2 nM
GI50 (U87 glioblastoma): 79 ± 30 nM
fold less potent than 56MESS (MCF-7 breast): ~2 fold
GI50 (MCF-7 breast): 180 ± 77 nM
GI50 (A2780 ovarian): 43 ± 10 nM
GI50 (H460 lung): 200 ± 170 nM
GI50 (A431 skin): 41 ± 8 nM
GI50 (Du145 prostate): 33 ± 21 nM
GI50 (BE2-C neuroblastoma): 110 ± 18 nM
GI50 (SJ-G2 glioblastoma): 100 ± 45 nM
GI50 (MIA pancreas): 28 ± 5.5 nM
GI50 [1]: 35 ± 7.8 nM
GI50 [2]: 26 ± 4.5 nM
GI50 (panel of cell lines): 75 ± 30 nM
log kw (y-intercept of log k versus [CH3CN] % plot, Figure S80) [3]: 0.9477
T50% (approximate time at which 50% reduction occurs) [4]: 20 to 25 min
time at which reduction starts [4]: 5 min
extent of reduction at 1 h (1H-NMR) [4]: almost reduced
extent of reduction 1 h after the final 1H-NMR experiment (1D-195Pt-NMR) [4]: entirely reduce back to its platinum(II) precursor, 56MESS; also recorded: complete reduction
ROS production 24 h (HT29 colon cells): 358 ± 21 RFU
ROS production 48 h (HT29 colon cells): 508 ± 16 RFU
ROS production 72 h (HT29 colon cells): 564 ± 10 RFU

N[C@H]1CCCC[C@@H]1N.O=C([O-])Cc1ccc(F)cc1.[OH-].[Pt+4].c1cnc2c(c1)ccc1cccnc12 [Complex 3, [Pt^IV(phen)(SS-DACH)(4-FPA)(OH)]^2+]
GI50 (HT29 colon): 210 ± 30 nM
GI50 (U87 glioblastoma): 1000 ± 150 nM
GI50 (MCF-7 breast): 740 ± 60 nM
GI50 (A2780 ovarian): 340 ± 70 nM
GI50 (H460 lung): 320 ± 30 nM
GI50 (A431 skin): 450 ± 60 nM
GI50 (Du145 prostate): 100 ± 17 nM
GI50 (BE2-C neuroblastoma): 810 ± 200 nM
GI50 (SJ-G2 glioblastoma): 337 ± 60 nM
GI50 (MIA pancreas): 230 ± 30 nM
GI50 [1]: 320 ± 10 nM
GI50 [2]: 250 ± 10 nM
GI50 (panel of cell lines): 426 ± 60 nM
log kw [3]: 0.25
log kw (y-intercept of log k versus [CH3CN] % plot, Figure S80) [3]: 0.249
T50% (approximate time at which 50% reduction occurs) [4]: 5 to 10 min
extent of reduction 1 h after the final 1H-NMR experiment (1D-195Pt-NMR) [4]: complete reduction
ROS production 24 h (HT29 colon cells): 305 ± 28 RFU
ROS production 48 h (HT29 colon cells): 409 ± 22 RFU
ROS production 72 h (HT29 colon cells): 558 ± 13 RFU
